In PMC9321722, “Tailored Pyridoxal Probes Unravel Novel Cofactor‐Dependent Targets and Antibiotic Hits in Critical Bacterial Pathogens” (Angewandte Chemie (International Ed. in English), 2022):

What was measured:
PA2683 [1] = biological target: T1, PA2683 (Pseudomonas aeruginosa, UniProt Q9I0F5); experiment: coupled NADH assay and LC-MS/MS of products; type: biochemical
T1 sequence (Q9I0F5 1-320): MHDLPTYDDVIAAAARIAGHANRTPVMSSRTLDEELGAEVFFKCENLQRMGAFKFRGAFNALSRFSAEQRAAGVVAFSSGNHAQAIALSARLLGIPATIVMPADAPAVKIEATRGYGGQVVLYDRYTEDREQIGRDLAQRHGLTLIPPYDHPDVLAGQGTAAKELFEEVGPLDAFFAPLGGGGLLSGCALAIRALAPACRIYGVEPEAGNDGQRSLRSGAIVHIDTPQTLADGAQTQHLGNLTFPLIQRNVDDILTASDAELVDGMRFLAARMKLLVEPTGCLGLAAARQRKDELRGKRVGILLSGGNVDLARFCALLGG

pdxK = biological target: T2, pdxK (Escherichia coli, UniProt P40191); experiment: UV/Vis phosphorylation assay; type: biochemical
T2 construct: pyridoxal kinase used in UV/Vis phosphorylation assay

SaPLK = biological target: T3, SaPLK (Staphylococcus aureus, UniProt Q5HI96); experiment: UV/Vis phosphorylation assay; type: biochemical
T3 construct: gene pdxK; pyridoxal kinase used in UV/Vis phosphorylation assay
T3 sequence (Q5HI96 1-276): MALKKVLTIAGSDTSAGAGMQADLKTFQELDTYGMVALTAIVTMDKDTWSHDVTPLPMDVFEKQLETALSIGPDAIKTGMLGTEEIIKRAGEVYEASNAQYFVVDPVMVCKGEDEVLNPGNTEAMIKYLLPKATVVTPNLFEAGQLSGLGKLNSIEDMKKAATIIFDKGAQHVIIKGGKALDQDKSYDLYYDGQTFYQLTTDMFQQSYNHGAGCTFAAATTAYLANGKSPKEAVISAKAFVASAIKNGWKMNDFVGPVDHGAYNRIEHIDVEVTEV

PA2683 [2] = biological target: T1, PA2683; experiment: acceleration of serine/threonine dehydratase activity of overexpressed enzyme; type: biochemical
[3] = biological target: T4, Orn/Lys/Arg decarboxylase (A0A0H2XII6) (Staphylococcus aureus, UniProt A0A0H2XII6); experiment: LC-MS/MS quantification of cadaverine formed by overexpressed enzyme; also competitive PL2 profiling in cells; type: biochemical
T4 construct: gene SAUSA300_0458

[4] = biological target: T5, A0A0H2XHJ5 (cysteine desulfurase, sufS) (Staphylococcus aureus, UniProt A0A0H2XHJ5); experiment: LC-MS quantification of alanine formed from L-Cys by overexpressed enzyme; type: biochemical
T5 construct: with sufU

[5] = biological target: T6, PA3659 (aminotransferase) (Pseudomonas aeruginosa, UniProt Q9HXY0); experiment: intact protein MS; UV/Vis of holo-enzyme; type: binding
T6 sequence (Q9HXY0 1-402): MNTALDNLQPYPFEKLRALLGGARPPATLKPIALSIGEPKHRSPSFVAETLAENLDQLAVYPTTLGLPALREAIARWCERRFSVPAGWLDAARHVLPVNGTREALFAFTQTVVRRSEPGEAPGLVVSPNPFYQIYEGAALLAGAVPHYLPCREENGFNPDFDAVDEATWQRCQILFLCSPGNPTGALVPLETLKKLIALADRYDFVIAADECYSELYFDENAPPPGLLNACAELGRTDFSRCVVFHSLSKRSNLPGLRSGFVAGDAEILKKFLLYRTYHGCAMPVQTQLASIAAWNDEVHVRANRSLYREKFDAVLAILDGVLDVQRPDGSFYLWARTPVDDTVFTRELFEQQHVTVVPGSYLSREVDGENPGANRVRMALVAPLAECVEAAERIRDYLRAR

ydcR = ydcR (Escherichia coli, UniProt P77730); experiment: intact protein MS of overexpressed protein; type: binding
[6] = biological target: T7, PA3798 (aminotransferase) (Pseudomonas aeruginosa, UniProt Q9HXJ9); experiment: intact protein MS; UV/Vis of holo-enzyme; type: binding
T7 sequence (Q9HXJ9 1-382): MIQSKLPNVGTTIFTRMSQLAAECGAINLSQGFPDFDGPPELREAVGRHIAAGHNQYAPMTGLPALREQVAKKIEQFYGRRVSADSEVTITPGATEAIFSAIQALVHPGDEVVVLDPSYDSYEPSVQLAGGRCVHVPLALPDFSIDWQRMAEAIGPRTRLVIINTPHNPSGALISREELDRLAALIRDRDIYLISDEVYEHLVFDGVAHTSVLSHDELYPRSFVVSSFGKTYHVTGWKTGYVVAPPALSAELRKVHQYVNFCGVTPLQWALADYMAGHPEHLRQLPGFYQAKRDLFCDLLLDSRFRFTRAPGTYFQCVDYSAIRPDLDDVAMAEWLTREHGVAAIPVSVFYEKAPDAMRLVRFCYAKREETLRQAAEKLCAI

PA2683 [7] = biological target: T1, PA2683; experiment: intact protein MS of overexpressed protein; type: binding

T2 sequence (P40191 whole entry): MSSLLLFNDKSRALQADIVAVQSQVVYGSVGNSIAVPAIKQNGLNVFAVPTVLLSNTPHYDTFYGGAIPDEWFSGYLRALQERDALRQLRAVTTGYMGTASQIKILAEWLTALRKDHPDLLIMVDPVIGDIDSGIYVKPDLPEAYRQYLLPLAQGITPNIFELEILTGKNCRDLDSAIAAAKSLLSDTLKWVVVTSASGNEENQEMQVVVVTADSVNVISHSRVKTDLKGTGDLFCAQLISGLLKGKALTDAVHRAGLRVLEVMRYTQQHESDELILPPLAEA
T4 sequence (A0A0H2XII6 entry or part of it): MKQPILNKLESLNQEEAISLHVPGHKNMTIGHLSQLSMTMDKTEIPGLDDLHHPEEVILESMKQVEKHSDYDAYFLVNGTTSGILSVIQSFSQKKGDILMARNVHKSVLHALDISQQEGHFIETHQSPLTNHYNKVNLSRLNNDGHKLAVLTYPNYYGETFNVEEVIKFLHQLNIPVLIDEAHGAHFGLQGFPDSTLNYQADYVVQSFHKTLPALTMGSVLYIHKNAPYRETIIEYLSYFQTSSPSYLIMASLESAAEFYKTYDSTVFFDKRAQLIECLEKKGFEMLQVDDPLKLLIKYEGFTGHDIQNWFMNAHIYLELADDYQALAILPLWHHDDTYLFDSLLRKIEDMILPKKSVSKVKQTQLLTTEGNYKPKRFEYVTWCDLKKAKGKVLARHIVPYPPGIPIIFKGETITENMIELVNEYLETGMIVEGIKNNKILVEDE
T5 sequence (A0A0H2XHJ5 entry or part of it): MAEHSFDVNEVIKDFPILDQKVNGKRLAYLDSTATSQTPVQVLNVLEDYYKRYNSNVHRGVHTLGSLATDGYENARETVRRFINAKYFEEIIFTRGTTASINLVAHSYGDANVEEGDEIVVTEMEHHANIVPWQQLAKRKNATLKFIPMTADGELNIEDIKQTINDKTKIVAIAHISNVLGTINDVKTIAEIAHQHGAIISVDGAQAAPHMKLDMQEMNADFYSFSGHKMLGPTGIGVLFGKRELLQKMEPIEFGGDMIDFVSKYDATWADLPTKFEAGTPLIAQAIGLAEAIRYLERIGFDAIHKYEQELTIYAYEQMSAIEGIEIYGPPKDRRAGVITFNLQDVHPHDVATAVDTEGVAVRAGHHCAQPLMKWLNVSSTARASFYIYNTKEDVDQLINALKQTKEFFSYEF
T5 sequence (A0A0H2XJC0 entry or part of it, further chain): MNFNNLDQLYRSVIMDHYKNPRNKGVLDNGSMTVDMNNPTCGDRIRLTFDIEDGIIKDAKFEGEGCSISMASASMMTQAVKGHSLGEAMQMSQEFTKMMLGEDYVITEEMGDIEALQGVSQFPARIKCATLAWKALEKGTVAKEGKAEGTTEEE
Chain of ydcR (P77730 whole entry): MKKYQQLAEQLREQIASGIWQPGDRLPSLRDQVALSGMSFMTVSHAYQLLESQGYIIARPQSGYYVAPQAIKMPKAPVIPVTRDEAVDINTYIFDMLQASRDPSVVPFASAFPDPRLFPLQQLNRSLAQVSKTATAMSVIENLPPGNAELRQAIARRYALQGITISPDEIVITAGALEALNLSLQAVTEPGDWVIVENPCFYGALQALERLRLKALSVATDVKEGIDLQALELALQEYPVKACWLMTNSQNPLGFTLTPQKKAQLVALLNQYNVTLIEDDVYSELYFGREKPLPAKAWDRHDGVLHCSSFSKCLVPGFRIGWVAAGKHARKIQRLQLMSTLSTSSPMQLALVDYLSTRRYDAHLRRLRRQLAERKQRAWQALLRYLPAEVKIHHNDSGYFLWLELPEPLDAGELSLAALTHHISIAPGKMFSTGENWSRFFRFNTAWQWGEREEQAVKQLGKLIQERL

Question: For `N[C@@H](CO)C(=O)O` [L-serine], which “coupled NADH assay and LC-MS/MS of products” value (PA2683 [1]) is on record?
Answer: The value was “The enzyme was overexpressed and indeed turnover of L‐serine was observed together with NADH consumption within a coupled assay”.

Question: Which UV/Vis phosphorylation assay (pdxK) does the source give for `C#CCCc1ncc(CO)c(C=O)c1O` [PL2] here?
Answer: The UV/Vis phosphorylation assay was “we observed phosphorylation of all probes except for PL11 and PL12”.

Question: What does the source list for `C#Cc1nc(C)c(O)c(C=O)c1CO` [PL10]?
Answer: UV/Vis phosphorylation assay (SaPLK): we observed phosphorylation of all probes except for PL11 and PL12; UV/Vis phosphorylation assay (pdxK): we observed phosphorylation of all probes except for PL11 and PL12

Question: For `Nc1ncnc2c1ncn2[C@@H]1O[C@H](COP(=O)(O)O)[C@@H](O)[C@H]1O` [adenosine monophosphate], which “acceleration of serine/threonine dehydratase activity of overexpressed enzyme” value (PA2683 [2]) is on record?
Answer: The value was “the catalysis was accelerated by adding adenosine monophosphate (AMP) and magnesium”.

Question: For `NNCCc1ccccc1` [phenelzine], which IC50 [3] is on record?
Answer: The IC50 was 53.1 ± 1.05 µM.

Question: What about the IC50 [4] of the same compound?
Answer: Its IC50 is 14.7 ± 1.22 µM.

Question: Which “intact protein MS; UV/Vis of holo-enzyme” value [5] does the source give for `Cc1ncc(COP(=O)(O)O)c(C=O)c1O` [pyridoxal phosphate] here?
Answer: Its value is “PLP binding of all overexpressed enzymes was confirmed via intact protein MS (IP‐MS, Figure 4A)”.

Question: And the “intact protein MS of overexpressed protein” value (ydcR)?
Answer: The value was “PLP binding of all overexpressed enzymes was confirmed via intact protein MS (IP‐MS, Figure 4A)”.

Question: What about the “intact protein MS; UV/Vis of holo-enzyme” value [6] of the same compound?
Answer: The value was “PLP binding of all overexpressed enzymes was confirmed via intact protein MS (IP‐MS, Figure 4A)”.

Question: And the “intact protein MS of overexpressed protein” value (PA2683 [7])?
Answer: Its value is “PLP binding of all overexpressed enzymes was confirmed via intact protein MS (IP‐MS, Figure 4A)”.
